In patent US20230101768A1, “METHOD TO TREAT MANGANESE TOXICITY AND MANGANESE-INDUCED PA[…] HUMANS” (priority 2021, published 2023):

Assays:
[1] = tested on: FPN; conditions: HepG2 cells, 250 μM manganese for 4 h; expression without manganese normalized to 1; mean±SE, N=4
Experimental: (§1) Cells were treated with 0 or 250 μM manganese for 4 h, and gene expression was analyzed by qRT-PCR. For each transcript, expression without manganese treatment was normalized to 1. N=4. Data are mean±SE.
(§2) Cell culture. HepG2 cells were grown in Eagle's modified essential medium (MEM; Corning) with 10% fetal bovine serum (Atlanta Biologicals), 100 IU/ml penicillin (Corning), and 100 μg/ml streptomycin (Corning). 293T cells were maintained in Dulbecco's modified essential medium/F12 (Thermo) supplemented with 10% fetal bovine serum, penicillin (100 IU/ml), and streptomycin (100 μg/ml). Human primary hepatocytes were purchased from XenoTech (catalog #HPCH10+) and cultured according to protocols provided by the supplier.
(§3) manganese and drug treatments in cell culture. Cells were treated with indicated levels of manganese as manganeseCl2.4H2O (Fisher). Vehicle for manganese treatment was water. Prolyl hydroxylase inhibitors roxadustat (Caymen), vadadustat, and molidustat (both APE-Bio); the HIFα inhibitor LW6 (Selleckchem); the proteasomal inhibitor MG132 (Sigma); and the transcription inhibitor actinomycin D (Sigma) were dissolved in DMSO. […] Vehicle treatment for all drugs was DMSO.
(§4) Quantitative RT-PCR assays. RNA extraction from HepG2 cells and mouse tissue, reverse transcription to cDNA, and qRT-PCR analyses were performed as described by us previously (47, 50). For analyses of mouse brain samples, a part of the midbrain, including the basal ganglia, was used. Transcript levels were quantified using the ΔΔCT method with 18S (in mice) or TBP (in HepG2 cells) as the internal control, also as described by us previously (47, 50).

[2] = tested on: SLC39A14; conditions: HepG2 cells, 250 μM manganese for 4 h; expression without manganese normalized to 1; mean±SE, N=4
Experimental: as §1, §2, §3, §4

[3] = tested on: HIF1α; assay type: cell-based, human; conditions: HepG2 cells, 250 μM manganese; evident at 4 hours, baseline by 24 h
Experimental: as §3
(§5) Immunoblots. HepG2 cells were cultured in 35 mm dishes, treated with or without manganese, MG132 and/or prolyl hydroxylase inhibitors, and scrapped using 200 μl of RIPA buffer (50 mM Tris-HCl, pH7.4; 150 mM NaCl; 1Mm EDTA; 1% Triton; 0.25% sodium deoxycholate; protease inhibitors cocktail (Thermo A32953)). Whole-cell lysates were prepared by adding loading buffer (50 mM Tris-HCl, pH 7.4; 2% sodium dodecyl sulfate; 10% glycerol, 0.1 M dithiothreitol; 0.01% (weight/volume) bromophenol blue) and boiling the samples for 5 min. Equal volumes of samples were loaded per lane. Further processing was as described by us previously (47). Images were quantified using ImageQuant TL software (GE).
(§6) Antibodies and chemicals. The inventors used the following commercial primary antibodies in this study: rabbit polyclonal anti-HIF1α (Abcam, Ab2185), rabbit polyclonal anti-HIF2α (Novus, NB100-122), rabbit monoclonal anti-HIF1α proline 564 (Cell signaling, 3434S), and mouse monoclonal anti-tubulin (Sigma, T5168). […] Sources of chemicals not provided elsewhere were Thermo Fisher Scientific or Sigma-Aldrich.

[4] = tested on: HIF2α; assay type: cell-based, human; conditions: HepG2 cells, 250 μM manganese; evident at 4 hours, baseline by 24 h
Experimental: as §3, §5, §6

[5] = tested on: prolyl hydroxylated HIF1α; assay type: cell-based, human; conditions: HepG2 cells, 10 μM MG132 for 1 h then 250 μM manganese for 4 h
Experimental: as §3, §5, §6

[6] = tested on: SLC30A10; assay type: cell-based; conditions: primary human hepatocytes, 250 μM manganese for 4 h
Experimental: (§7) (A) and (B): qRT-PCR assays in cells treated with or without 10 μM LW6 for 1 h followed by 0 or 250 μM manganese for 4 h (A) or with or without 20 μM roxadustat or 80 μM vadadustat for 16 h (B). […] For (B), expression in the absence of drug treatment was normalized to 1. N=3. Mean±SE. *P<0.05 by t-test (A) or one-way ANOVA and Dunnett's post hoc test for the comparison between no drug and other conditions (B).
as §2, §3, §4

[7] = tested on: VEGF; assay type: cell-based; conditions: primary human hepatocytes, 250 μM manganese for 4 h
Experimental: as §7, §2, §3, §4

[8] = tested on: C57BL/6J mice; conditions: C57BL/6J mice, open field 6-15 min interval, ~30 mg manganese/kg daily in drinking water, 4 weeks
Experimental: To assay for the protective effect of roxadustat, animals were exposed to roxadustat or vehicle with or without manganese in drinking water from ˜4 weeks of age. Treatment lasted for 4 weeks from initiation. Roxadustat (Selleckchem) was prepared as a 50 mg/ml stock solution in DMSO, then diluted to 1 mg/ml in sterile phosphate buffered saline (PBS), and delivered by daily i.p. injection at 10 mg/kg. Vehicle was 2% DMSO in PBS. For this experiment, drinking water manganese levels were adjusted to 0.138 mg absolute manganese/ml so that animals received ˜30 mg absolute manganese/kg daily. A higher level of manganese was used because exposure was initiated after weaning, which was necessary because daily i.p. injections for roxadustat delivery were not possible in the pre-weaning period.
Open-field assays for neurobehavior assessment. Open-field analyses were performed as described in a recent publication (51).

**Q.** For O.O.O.O.[Cl][Mn][Cl] [manganese, manganeseCl2.4H2O], which “Relative expression after manganese, FPN transcript” value [1] is on record?
**A.** 0.77 ± 0.21

**Q.** And the “Relative expression after manganese, SLC39A14 transcript” value [2]?
**A.** 0.71 ± 0.02

**Q.** What about the “HIF1α protein levels after manganese” value [3] of the same compound?
**A.** increased

**Q.** And the “HIF2α protein levels after manganese” value [4]?
**A.** increased

**Q.** What about the “Signals for prolyl hydroxylated HIF1α in manganese-treated condition” value [5] of the same compound?
**A.** substantially lower

**Q.** What about the “SLC30A10 expression after manganese” value [6] of the same compound?
**A.** increased

**Q.** What about the “VEGF expression after manganese” value [7] of the same compound?
**A.** increased

**Q.** And the “Vertical (rearing) movement versus vehicle-treated controls, manganese-only” value [8]?
**A.** reduced
